# From paper PMC11274654 (Biomedicines, 2024)
# Where two headings read alike, the source gives them in different places.
# Assays:
# [1] = system: Rat Calvarial Osteoblasts (RCOs); assay: ALP assay (osteoblast differentiation) in rat calvarial osteoblasts; type: cell-based
# Description: Sequential digestion was performed to isolate calvarial osteoblast cells from neonatal rat pups. Briefly, calvariae were harvested from ten to twelve 1–2-day old rat pups, cleaned, and subjected to five sequential enzymatic digestions (0.1% dispase and 0.1% collagenase I) of 10–15 min each, followed by culturing of the harvested cells in α-MEM supplemented with 10% FBS [22].
# RCOs were seeded in 24-well plates (1 × 10^4 cells/well), and the cells were treated for 48 h in osteoblast differentiation media (α-MEM supplemented with 10 mM β-glycerophosphate and 50 μg/mL ascorbic acid) with the imidazole group of chemicals (10^−11 M–10^−6 M).
# A total of 2 mg/mL of para-Nitrophenyl phosphate in diethanolamine buffer was used to measure the ALP activity at a 405 nm wavelength.
# [2] = system: GSK3β phosphorylation in RCO; assay: Western blotting of p-GSK/GSK in RCO; type: cell-based, rat; conditions: 10 nM
# Description: Western blotting was performed as previously described. Briefly, whole-cell extracts (WCEs) were prepared at indicated time points using RIPA lysis buffer, and aliquots of 30 μg protein per lane were loaded and resolved on SDS-PAGE (10%), followed by blotting onto the PVDF membrane (Millipore Inc., Burlington, MA, USA). The membrane was blocked in 1% BSA, followed by immunoblotting with primary antibodies: Runx2 (ab 76956) (1:1000), pGSK (9323S) (1:1000), and GSK (9315S) (1:1000) at 4 °C overnight. Anti-rabbit HRP secondary antibody (Sigma, catalog number A0545) (1:3000) was used for Runx2, pGSK3β, and GSK3β. Bands were detected by incubating the membranes with ECL substrate (Thermo Fisher Scientific, Waltham, MA, USA) and developed on ChemiDoc (Image Quant LAS 4000, GE Healthcare, Hatfield, UK). Blots were re-probed after washing with mild stripping buffer (1.5% Glycine, 0.1% SDS, and 1% Tween 20).
# [3] = system: bone regeneration at the femur osteotomy site; assay: Femur osteotomy model, oral MTZ; type: in vivo, Sprague Dawley rats; conditions: 117 mg/kg and 235 mg/kg oral daily, 12 days
# Description: Femur osteotomy was carried out in adult female Sprague Dawley (SD) rats (200 ± 20 g, 3 months old) and 3-month post-ovariectomized osteopenic SD rats (280 ± 20 g, 6 months old) by inserting a drill bit with a diameter of 0.8 mm from the anterior to the posterior mid-diaphysis of the right femur.
# The human equivalent dose for rats is 235 mg/kg; half of this amount, 117 mg/kg, was used for the study. Doses of MTZ (117 mg/kg and 235 mg/kg) were administered daily by the oral route for 12 days. For the formulation study, MTZ@In situ gel and unformulated MTZ were administered every 3 days (total of 4 injections) for a period of 12 days via the subcutaneous route in the osteotomy animal. Each rat received 20 mg/kg, s.c. of bone-seeking fluorochrome calcein 24 h before sacrifice in order to evaluate the new bone formation at the fractured callus.
# A SkyScan 1076 μCT scanner (SkyScan, Ltd., Kartuizersweg, Kontich, Belgium) was used to perform a high-resolution μCT for the two-dimensional and three-dimensional assessment of excised bones. The rat bone scanning process used an isotropic voxel pixel size of 18 μm and an X-ray source of 70 kV and […]. Utilizing the SkyScan Nrecon software (Version: 1.7.0.4), cross-sectional reconstruction was performed. […] The Batman software (Version: 1.16.8.0+), with trabecular (3D) bone analysis programs was used for quantification.
# [4] = Pharmacokinetic study, s.c., plasma LC-MS/MS; type: in vivo; conditions: rats, 40 mg/rat s.c.
# Description: Mass spectrometric detections were carried out using an AB Sciex 4000 QTRAP LC-MS/MS, Redwood City, CA, USA) instrument fitted with an electrospray ionization source. Separation was conducted through X Bridge^TM Shield RP 18 (Waters, MA, USA) (5 µm, 4.6 × 50 mm) column. […] The ion spray voltage was set at 4500 V. […] The MS was operated in the ESI positive-ion mode, and the detection of the ions was performed in the multiple reaction monitoring (MRM) mode, monitoring the transition of m/z 172.06 precursor ion [M + H]+ to the m/z 128.08 product ion for IS and m/z 236.95 precursor ion [M + H]+ to the m/z 194.04 product ion for compound, respectively. After overnight fasting, the animals were divided into two groups (n = 4) based on the treatment: […] An MTZ suspension was prepared in water. Blood samples were collected at predetermined time points (0.25 to 48 h). […] To extract MTZ from plasma samples, the protein precipitation method was used. In this method, plasma samples (50 μL) were taken (50 ng/mL of carbamazepine (CBZ) as the internal standard) and vortexed at 2000 rpm for 10 min. Subsequently, the samples were centrifuged at 10,000 rpm for 10 min. The supernatant (100 µL) was taken for LC-MS/MS analysis. Data acquisition and quantitation were performed using analyst software. The PK parameters were determined using the Phoenix™ 6.3 WinNonlin (Pharsight Corporation, Mountain View, CA, USA) software as a noncompartmental model approach.
smiles,measurement,setting,value
Cc1ncc([N+](=O)[O-])n1CCO [Metronidazole],Activity in ALP Assay (Positive/Negative),[1]; 48 h,Positive
same,Effect on ALP activity compared to the control (vehicle),[1]; 48 h,significantly increased
same,EC50,"[1]; Rattus norvegicus, Calvarial osteoblast, 48 h in osteoblast differentiation media",1.2 nM
same,GSK3β phosphorylation,[2],increased GSK3β phosphorylation in a time-dependent manner
same,Time of maximum effect on GSK3β phosphorylation,[2],15 min
same,Bone volume at the osteotomy site,[3],increased
same,Calcein intensity at the osteotomy site,[3],increased
same,MRT,"[4]; plasma, sc",7.63 ± 0.3 h
same,AUC,"[4]; plasma, sc, read-out: Area under the curve (AUC)0–last",206 ± 7.05 µg·h/mL
same,Cmax,"[4]; plasma, sc, read-out: Maximum concentration (Cmax)",23000 ± 870 ng/mL
same,Cl,[4],13 ± 0.5 mL/min/kg
same,Vd,[4],4.91 ± 0.15 L/kg
same,AUC(0-inf),"[4]; sc, plasma",206 ± 7.05 µg·h/mL
same,Tmax,"[4]; sc, plasma",1.75 ± 0.25 h
same,half-life,"[4]; sc, plasma",4.39 ± 0.26 h
same,Cmax,"[4]; sc, plasma, read-out: Cmax",23000 ± 870 ng/mL
